Data set [1] can be described thus: JN-170 plasma pharmacokinetics in Pah^enu2 mice, single oral dose. Format: in vivo, mouse. More on the design: JN-170 plasma level (Fig 3a) / JN-170 plasma concentration: unit not given here. As to conditions: for JN-170 plasma level (Fig 3a) / concentration at 8 h / concentration at 1 h / concentration at 3 h: individual Pah^enu2 mice; for JN-170 plasma concentration: Fig S3a, Pahenu2 mice, individual animals; for concentration at 8 h / concentration at 1 h / concentration at 3 h: male, BTBR-Pah<enu2>/J (Pah^enu2), mouse, plasma, oral, read-out: JN-170 plasma level (Fig 3a). The procedure:
Male homozygous BTBR-Pah<enu2>/J (Pah^enu2) aged 10–13 weeks were purchased from Jackson Laboratory (no. 002232). Immediately before dosing, each animal’s bladder was manually emptied and a plasma sample was drawn. Animals were dosed by oral gavage with vehicle (10% DMSO, 20% 2-hydroxypropyl-β-cyclodextrin [Sigma-Aldrich]) followed by a 1-week washout prior to dosing with JN-170 at doses ranging from 50 to 250 mg/kg. Following dosing with vehicle or JN-170, animals were individually placed in metabolic cages to collect urine samples. After collection of each urine sample, cages were rinsed with ultra-pure water to recover residual analytes. Blood samples were collected predose as well as 1, 3, 8, 12, and 24 hours after dosing with vehicle or JN-170 into tubes with EDTA as a […], and plasma was separated by centrifuging samples at 2,200g for 5 minutes at 4°C. Throughout the study, mice had access to food and water ad libitum. Plasma and urine samples were stored at –80°C until processing.Ten-week-old male WT C57Bl/6J animals (Si Bei Fu Laboratory Animal Technology Co. Ltd.) were dosed either with vehicle or 50–250 mg/kg JN-170 by oral gavage and blood and urine samples were collected as described. All animals had unrestricted access to food and water during the study; C57Bl/6J were kept on rodent maintenance diet from Beijing Keao Xieli, Pah^enu2 mice were kept on Teklad diet no. T.2018.
Plasma sample analyses were carried out by liquid chromatography tandem mass spectrometry (LC-MS/MS). Plasma samples were mixed 1:1 with carbamazepine or ^13C6-Phe as internal standards for JN-170 and Phe, respectively. Plasma proteins were precipitated by adding 4 volumes of acetonitrile (ACN) and 0.1% formic acid (FA) followed by centrifugation for 5 minutes at 2,100g. Supernatants were diluted 1:1 in ACN and 0.1% FA. For JN-170, a Waters HSS T3 reversed phase column was used for separation using a binary gradient of 0.1% FA in water (mobile phase A) to 0.1% in ACN (mobile phase B). At a flow rate of 0.8 mL/min, the mobile phase gradient increased from an initial 25% phase B to 95% phase B over 30 seconds. After, 1.5 minutes, the gradient was returned to 25% mobile phase B. For detection of Phe, an Acquity UPLC ethylene bridged hybrid (BEH) amide column was used, with a binary gradient of 10 mM ammonium acetate in 95:5:1 H2O:ACN:FA (mobile phase A) to 10 mM ammonium acetate in 95:5:1 ACN:H2O:FA (mobile phase B). At a flow rate of 0.5 mL/min, the mobile phase gradient changed from an initial 100% phase B to 50% phase B over 2.1 minutes. It was returned to 100% phase B after 4 minutes. Analytes were detected using a Sciex API-5500 in multiple reaction monitoring mode using an electrospray ionization source in the positive ion mode with the following ion transitions: m/z 435.2/84.1 (JN-170), 237.1/194.1 (carbamazepine), 166.1/120.1 (Phe), 172.2/126.2 for (^13C6-Phe). Analyte concentrations were calculated with a 1/×^2 linear regression over a concentration range of 1 or 2 to 5,000 ng/mL for JN-170 and 0.05–100 ng/mL for Phe.

The subject of a further data set is T1, human SLC1A5.
T1 construct: V5; expressed in transfected cells; host or cells: Flp-In T-Rex 293 cells (Thermo Fisher), tetracycline-induced
Briefly: SLC1A5 glutamine transport assay. Format: cell-based. As to conditions: for SLC1A5 transport (Fig S2 curve point): technical replicates. On the procedure:
Supplementary Materials and Methods
Flp-In T-Rex 293 cells (Thermo Fisher) were engineered to induciblyexpress either V5-tagged human SLC1A5, SLC6A8 or SLC7A5 co-expressed with myc-DDK-tagged SLC3A2. Cells expressing SLC 1A5 or SLC6A8 were maintained in either DMEM or DMEM/F12 media supplemented with 10% FBS, 100 U/mL penicillin, 100 μg/mL streptomycin, 200 μg/mL hygromycin, and 10 μg/mL blasticidin. For cells expressing SLC7A5/SLC3A2, the media was additionally supplemented with 300 μg/mL geneticin. All cell lines were maintained at 37°C and 5% CO2. For transport experiments, all cell lines were plated in poly-D-lysine-coated 96-well plates at a density of 35,000 cells/well. One day after plating, expression of SLC1A5, SLC6A8 or SLC7A5 was induced by adding tetracycline at a concentration of 1 μg/mL. Cells were induced for 24 h prior to transport assays.
SLC1A5 glutamine transport assay
Following a 24 h induction with tetracycline, cells were washed with LCIS before JNT -517 was added in 8-point concentration-response diluted in live cell imaging solution. D -serine was used as a positive control (32)at aconcentration of 40 mM and 0.5% DMSO was used as a negative control. Cells were incubated for 20 min at room temperature and then placed on ice for an additional 5 minutes. Then, a mixture of unlabeled L-glutamine (Millipore Sigma) spiked with 4.5 μCi/mL 2,3,4- 3H-labeled L-glutamine (American Radiolabeled Chemicals) was added at a final concentration of 100 μM. After a 5 min incubation on ice, cells were washed once with ice - […]
cold LCIS and lysed in scintillation fluid (PerkinElmer). The uptake of radioactive substrate was measured on a Microbeta2 microplate counter (PerkinElmer). […]

Each structure is given as a SMILES string. Several values for one entry are separate records, joined by “and”; a condition that tells them apart may be missing. Equal entries are not always repeated. Where two headings read alike, the source gives them in different places.

As to `N#Cc1ccc(-c2noc([C@]3(C(F)(F)F)CCN(C(=O)NCCC4(N)CC4)C3)n2)cc1` [JN-170], in data set [1] (50 mg/kg), the “coverage above the in vitro IC75” value is recorded as “approximately 3 hours”. The “JN-170 plasma level (Fig 3a)” value in data set [1] (50 mg/kg oral, 24 h) was 8.45 and 26.4 and 9.59 and 19.9; in data set [1] (250 mg/kg oral, 1 h), 16600 (2×) and 17000 and 16300 and 17600; in data set [1] (250 mg/kg oral, 24 h) it was 125 and 63 and 72.6. Further, the JN-170 plasma concentration in data set [1] (time 1 h) was 10400 and 12200 and 13800 and 8750 and 11500 and 12500; in data set [1] (time 3 h), 8500 and 9610 and 10900 and 8710 and 9900 and 11900; in data set [1] (time 8 h) it was 11000 and 6710 and 8280 and 8610 and 8480 and 9150; in data set [1] (time 12 h), 7430 and 5630 and 5750 and 12700 and 9060 and 6600; in data set [1] (time 24 h) it was 33.1 and 16 and 26.9 and 82.7 and 103 and 19.9. Moreover, the concentration at 8 h is 456 ng/mL in data set [1] (50 mg/kg, 50 mg/kg oral); 2280 ng/mL in data set [1] (100 mg/kg, 100 mg/kg oral); 8610 ng/mL in data set [1] (200 mg/kg, 200 mg/kg oral); 11200 ng/mL in data set [1] (250 mg/kg, 250 mg/kg oral). The concentration at 1 h in data set [1] (100 mg/kg, 100 mg/kg oral, 1 h) was determined as 5780 ng/mL; in data set [1] (200 mg/kg, 200 mg/kg oral, 1 h) it was 8750 ng/mL; in data set [1] (250 mg/kg, 250 mg/kg oral, 1 h) it was 18300 ng/mL. The concentration at 3 h in data set [1] (100 mg/kg, 100 mg/kg oral) amounted to 4240 ng/mL; in data set [1] (200 mg/kg, 200 mg/kg oral) it was 8710 ng/mL; in data set [1] (250 mg/kg, 250 mg/kg oral), 14800 ng/mL.

For the compound `NC(=O)N1CCC[C@@H](N(C(=O)NCc2ccc(OC(F)(F)F)cc2F)C2CC2)C1` [JNT-517], the “SLC1A5 transport (Fig S2 curve point)” value with human SLC1A5 (0.0160037 uM) is 77.6 and 89.2; in the data set with human SLC1A5 (0.048011 uM), 105 and 120; in the data set with human SLC1A5 (0.144033 uM) it was 112 and 122; in the data set on human SLC1A5 (0.432099 uM) it was 125 and 131; in the data set on human SLC1A5 (1.2963 uM), 122 and 116; in the data set with human SLC1A5 (3.88889 uM), 125 and 121. Also, the “SLC1A5 transport (Fig S2 curve point)” value is 117 and 115 with human SLC1A5 (11.6667 uM); 110 and 117 with human SLC1A5 (35 uM). Moreover, the “inhibition of SLC1A5” value in the data set with human SLC1A5 (concentrations up to 35 μM) is “did not inhibit”.
